Reference: article PMC7356228, “Alvaxanthone, a Thymidylate Synthase Inhibitor with Nematocidal and Tumoricidal Activities” (Molecules, 2020)
Where two headings read alike, the source gives them in different places.

What was measured:
CeTS = molecular target: T1, CeTS (Caenorhabditis elegans, UniProt Q9Y052); assay: Inhibition of TS-catalyzed reaction (tritium release from [5-3H]dUMP); assay type: biochemical, C. elegans; details: 20 µM dUMP, 250 µM meTHF
T1 sequence (Q9Y052 1-315): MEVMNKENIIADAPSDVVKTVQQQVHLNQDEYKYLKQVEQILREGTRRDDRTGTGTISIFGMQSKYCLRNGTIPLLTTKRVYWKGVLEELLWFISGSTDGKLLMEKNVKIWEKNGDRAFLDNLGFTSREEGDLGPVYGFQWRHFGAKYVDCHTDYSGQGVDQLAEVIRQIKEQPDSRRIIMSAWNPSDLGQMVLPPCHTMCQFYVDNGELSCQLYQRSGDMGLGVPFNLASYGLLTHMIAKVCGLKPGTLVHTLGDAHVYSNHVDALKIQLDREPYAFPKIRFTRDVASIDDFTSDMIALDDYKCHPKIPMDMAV
Description: (§1) The recombinant human, rat, mouse, T. spiralis and C. elegans TS proteins were produced, purified and separated into phosphorylated and non-phosphorylated fraction, as previously described. TS activity was monitored, following tritium release from [5-^3H]dUMP, and its inhibition studied as earlier reported.

C. elegans = assay: Toxicity to C. elegans (population growth); details: Caenorhabditis elegans, read-out: LC50 (reduction of growth of the nematode population)
Description: C. elegans was maintained as previously described. The effect of the compounds studied on C. elegans population growth was determined as earlier presented.

SCC-15 cells [1] = assay: Intracellular ATP level (CellTiterGlo); assay type: cell-based, human; details: 48-h incubation, SCC-15
Description: (§2) Figure 4 Changes of caspase-3/7 activities and intracellular ATP level in BJ, U-118 MG, and SCC-15 cells after 48-h incubation with 5–40 µM alvaxanthone or rheediaxanthone B. Median results are presented of three independent experiments, each performed in triplicate. The whiskers are lower (25%) and upper (75%) quartile ranges.
(§3) On the other hand, rheediaxanthone B caused a reduction of ATP level down to around 30% in glioma cells and fibroblasts, and to 20% in squamous carcinoma cells (Figure 4). In general, with increasing Caspase-3/7 activity the ATP level was decreasing, in accord with the results of Reference.
(§4) Influence of selected compounds on cells was tested by performing the cytotoxicity (NR and XTT) assays, proliferation assay, cell adhesion assay, cell migration assay, determination of intracellular ATP level, and apoptosis assay as previously reported.

U-118 MG cells [2] = assay: Intracellular ATP level (CellTiterGlo); assay type: cell-based, human; details: 48-h incubation, glioma cells
Description: as §2, §3, §4

BJ cells [3] = assay: Intracellular ATP level (CellTiterGlo); assay type: cell-based, human; details: 48-h incubation, normal fibroblasts
Description: as §2, §3, §4

SCC-15 cells [4] = assay: Tetrazolium salts reduction (XTT) assay; assay type: cell-based, human
Description: (§5) Biological effect of alvaxanthone and rheediaxanthone B on normal (BJ) and cancer cells (U-118 MG and SCC-15) was estimated using two viability assays, the neutral red uptake (NR) and tetrazolium salts reduction (XTT) assays.
(§6) Thus, alvaxanthone may be damaging mitochondria and impairing their metabolism exerting one of possible mechanisms active in destroying cancer cells. Changes of cell morphology in dependence on increasing alvaxanthone and rheediaxanthone B concentration were also recorded. While the glioma and squamous carcinoma cells formed clusters, lost their adhesion, shrank, and accumulated less NR dye, normal fibroblasts preserved rather normal shapes but the amount of the neutral red dye and confluence of cells decreased. In addition, a lower number of BJ cells was detected (Figure 1B).
as §4

U-118 MG cells [5] = assay: Tetrazolium salts reduction (XTT) assay; assay type: cell-based, human; details: U-118 MG vs BJ, 48 h
Description: as §5, §6, §4

[6] = tested on: thymidylate synthase (TS); assay: Time dependence of TS inhibition (initial results); assay type: biochemical; details: suggesting slow-binding character
Description: as §1

[7] = tested on: BJ normal human skin fibroblasts; assay: Cytotoxicity, neutral red uptake (NR) assay; assay type: cell-based; details: Homo sapiens, Skin fibroblast; neutral red assay, BJ; read-out: IC50
Description: as §5
(§7) Human glioblastoma cells U-118 MG (ATCC® HTB-15), human squamous carcinoma cells SCC-15 (ATCC® CRL-1623), and normal human skin fibroblasts (ATCC® CRL-2522) were grown, their morphology checked, and number and viability estimated as earlier presented.
as §4

[8] = Cytotoxicity, neutral red uptake (NR) assay; assay type: cell-based, human; details: human, BJ normal skin fibroblasts; NR assay, 40 µM, 48 h, fibroblasts
Description: as §5, §7, §4

SCC-15 cells [9] = assay: Cell adhesion, crystal violet assay; assay type: cell-based, human; details: 48-h treatment
Description: (§8) Cancer metastasis, resulting from an impairment of adhesion between cancer cells and the extracellular matrix may cause cell migration from a primary tumor into distant parts of an organism. The cristal violet assay was used to examine alvaxanthone and rheediaxanthone B ability to influence cellular adhesion.
(§9) Figure 3 Influence of alvaxanthone or rheediaxanthone B on BJ, U-118 MG, and SCC-15 cells adhesion after 48-h treatment. The crystal violet assay was used. Results are medians of triplicate assays of three independent experiments expressed as a % of non-treated controls. The whiskers are lower (25%) and upper (75%) quartile ranges. * p ≤ 0.05, Kruskal–Wallis test (against non-treated control).
as §4

U-118 MG cells [10] = assay: Cell adhesion, crystal violet assay; assay type: cell-based, human; details: 48-h treatment
Description: as §8, §9, §4

BJ cells [11] = assay: Cell adhesion, crystal violet assay; assay type: cell-based, human; details: 48-h treatment
Description: as §8, §9, §4

hTS = molecular target: T2, hTS (Homo sapiens, UniProt P04818); assay: Inhibition of TS-catalyzed reaction (tritium release from [5-3H]dUMP); assay type: biochemical
T2 construct: made in house
Description: as §1

mTS = molecular target: T3, mTS (Mus musculus, UniProt P07607); assay: as above; assay type: biochemical; details: 20 µM dUMP, 250 µM meTHF
T3 construct: made in house
Description: as §1

[12] = tested on: human oral squamous carcinoma cells (HSC-2 cell line); parameters: method as in Hou et al. [41]; details: 24 h incubation; ref Hou et al. [41]; cited from earlier work
[13] = tested on: BJ, U-118 MG and SCC-15 cells; assay: NR assay, summary over the three cell lines; assay type: cell-based, human; details: 48 h, span over BJ
Description: as §5, §6, §4

[14] = compound 100 µM, read-out: % Remaining Activity

T2 sequence (P04818 whole entry): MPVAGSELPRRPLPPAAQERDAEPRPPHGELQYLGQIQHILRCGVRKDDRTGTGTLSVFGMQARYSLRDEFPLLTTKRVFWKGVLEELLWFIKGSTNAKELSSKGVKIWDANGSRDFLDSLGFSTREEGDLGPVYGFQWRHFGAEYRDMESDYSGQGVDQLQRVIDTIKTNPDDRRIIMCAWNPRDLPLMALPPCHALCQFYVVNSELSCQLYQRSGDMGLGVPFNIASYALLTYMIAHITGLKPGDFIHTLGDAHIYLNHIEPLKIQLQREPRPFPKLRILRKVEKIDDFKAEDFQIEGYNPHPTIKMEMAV
T3 sequence (P07607 whole entry): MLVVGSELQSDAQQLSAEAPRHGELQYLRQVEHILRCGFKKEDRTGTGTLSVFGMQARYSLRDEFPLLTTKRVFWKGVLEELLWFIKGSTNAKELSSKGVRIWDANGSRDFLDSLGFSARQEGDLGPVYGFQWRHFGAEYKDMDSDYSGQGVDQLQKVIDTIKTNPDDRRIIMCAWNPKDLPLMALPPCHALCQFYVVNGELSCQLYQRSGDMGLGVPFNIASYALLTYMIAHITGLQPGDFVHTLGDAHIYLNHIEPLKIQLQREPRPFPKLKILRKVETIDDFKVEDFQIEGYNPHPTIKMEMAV

**Q.** With `C=CC(C)(C)c1c(O)cc2oc3c(O)c(O)cc(CC=C(C)C)c3c(=O)c2c1O` [Alvaxanthone (15), Alvaxanthone] as the molecule, how does the remaining activity at 10 µM (CeTS; compound 10 µM) read?
**A.** Its remaining activity at 10 µM is 85%.

**Q.** And the remaining activity at 100 µM (CeTS; [14])?
**A.** The remaining activity at 100 µM was 18%.

**Q.** What about the LC50 (C. elegans) of the same molecule?
**A.** The LC50 was 4.6 ± 0.57 µM.

**Q.** And the “change of ATP level” value (SCC-15 cells [1])?
**A.** Its value is “dramatically reduced”.

**Q.** And the “change of ATP level” value (U-118 MG cells [2])?
**A.** Its value is “unaltered”.

**Q.** And the “change of ATP level” value (BJ cells [3])?
**A.** The value was “slight decrease”.

**Q.** What about the IC50 (SCC-15 cells [4]; Homo sapiens, SCC-15) of the same molecule?
**A.** The IC50 was 17 µM.

**Q.** And the “selectivity: more sensitive compared to BJ fibroblasts” value (SCC-15 cells [4]; SCC-15 vs BJ, 48 h)?
**A.** Its value is 5.3 fold.

**Q.** And the “selectivity: more sensitive compared to BJ fibroblasts” value (U-118 MG cells [5])?
**A.** Its value is 2.7 fold.

**Q.** What about the character of inhibition [6] of the same molecule?
**A.** Its character of inhibition is “time-dependent inhibition”.

**Q.** And the IC50 [7]?
**A.** The IC50 was 15.8 µM.

**Q.** And the viability at 48 h, 40 µM [8]?
**A.** Its viability at 48 h, 40 µM is 35%.

**Q.** And the “concentration at which reduction of adhesion is significant/apparent” value (SCC-15 cells [9])?
**A.** The value was 20 µM.

**Q.** What about the “concentration at which reduction of adhesion is significant/apparent” value (U-118 MG cells [10]) of the same molecule?
**A.** The value was 40 µM.

**Q.** And the “concentration at which reduction of adhesion is significant/apparent” value (BJ cells [11])?
**A.** The value was 20 µM.

**Q.** What about the IC50 (hTS; 20 µM dUMP and 50 µM meTHF, mean ± S.E.M. (N=3) for alvaxanthone, rheediaxanthone B not repeated, read-out: IC50) of the same molecule?
**A.** The IC50 was 6.3 ± 1.6 µM.

**Q.** And the IC50 (hTS; 20 µM dUMP, 250 µM meTHF, read-out: IC50 Assessment)?
**A.** Its IC50 is less than 10 µM.

**Q.** And the remaining activity at 10 µM (hTS; compound 10 µM, 20 µM dUMP, 250 µM meTHF)?
**A.** Its remaining activity at 10 µM is 39%.

**Q.** And the remaining activity at 10 µM (mTS; compound 10 µM)?
**A.** The remaining activity at 10 µM was 79%.

**Q.** And the remaining activity at 100 µM (mTS; [14])?
**A.** Its remaining activity at 100 µM is 40%.

**Q.** And the IC50 [12]?
**A.** The IC50 was 22 µM.

**Q.** And the IC50 ([13]; Homo sapiens)?
**A.** Its IC50 is greater than 15 µM.

**Q.** And the IC50 [13]?
**A.** Its IC50 is less than 18 µM.
